Values after ≈ are worked out from the molar mass of the structure shown.
Legend:
Mus musculus = species: Mus musculus; test: Protected dose which protects 50% of challenged mice from death owing to the Pasteurella multocida (59A006) infection; type: functional; settings: read-out: PD50
Pasteurella multocida = test: Minimum inhibitory concentration required to inhibit Pasteurella multocida 59A006 in vitro; type: functional

Row | Compound | ED50 (Mus musculus) | MIC (Pasteurella multocida)
1 | CCC1OC(=O)CC(O)C(C)C(O[C@@H]2O[C@H](C)C[C@H](N(C)C)[C@H]2O)C(CC=O)CC(C)C(=O)/C=C/C(C)=C/C1C (stereo partly drawn) | > 200 mg/kg | 0.39 µg/mL (≈ 0.689 µM)
2 | CC[C@H]1OC(=O)CC(O)[C@H](C)[C@@H](O[C@@H]2O[C@H](C)C[C@H](N(C)C)[C@H]2O)[C@@H](CCN2CCCCC2)C[C@@H](C)C(=O)/C=C/C(C)=C/[C@@H]1C (stereo partly drawn) | 150 mg/kg | 0.2 µg/mL (≈ 0.315 µM)
3 | CC[C@H]1OC(=O)CC(O)[C@H](C)[C@@H](O[C@@H]2O[C@H](C)C[C@H](N(C)C)[C@H]2O)[C@@H](CCN(C)CCCN(C)C(=O)CNC)C[C@@H](C)C(=O)/C=C/C(C)=C/[C@@H]1C (stereo partly drawn) | 6 mg/kg | 0.39 µg/mL (≈ 0.539 µM)
4 | CC[C@H]1OC(=O)CC(O)[C@H](C)[C@@H](O[C@@H]2O[C@H](C)C[C@H](N(C)C)[C@H]2O)[C@@H](CCN2CCCCC2)C[C@@H](C)C(=O)/C=C/[C@]2(C)O[C@H]2[C@@H]1C (stereo partly drawn) | 114 mg/kg | 0.2 µg/mL (≈ 0.307 µM)
5 | CC[C@H]1OC(=O)CC(O)[C@H](C)[C@@H](O[C@@H]2O[C@H](C)C[C@H](N(C)C)[C@H]2O)[C@@H](CCN2CCCCCC2)C[C@@H](C)C(=O)/C=C/C(C)=C/[C@@H]1C (stereo partly drawn) | > 200 mg/kg | 0.1 µg/mL (≈ 0.154 µM)
6 | CC[C@H]1OC(=O)CC(O)[C@H](C)[C@@H](O[C@@H]2O[C@H](C)C[C@H](N(C)C)[C@H]2O)[C@@H](CCNCC(O)CO)C[C@@H](C)C(=O)/C=C/C(C)=C/[C@@H]1C (stereo partly drawn) | 10 mg/kg | 0.39 µg/mL (≈ 0.609 µM)
7 | CC[C@H]1OC(=O)CC(O)[C@H](C)[C@@H](O[C@@H]2O[C@H](C)C[C@H](N(C)C)[C@H]2O)[C@@H](CCN(CCCN(C)C)C(=O)CN)C[C@@H](C)C(=O)/C=C/C(C)=C/[C@@H]1C (stereo partly drawn) | 4 mg/kg | 0.78 µg/mL (≈ 1.1 µM)
8 | CC[C@H]1OC(=O)CC(O)[C@H](C)[C@@H](O[C@@H]2O[C@H](C)C[C@H](N(C)C)[C@H]2O)[C@@H](CCNCC(C)(C)CO)C[C@@H](C)C(=O)/C=C/C(C)=C/[C@@H]1C (stereo partly drawn) | 26 mg/kg | 0.05 µg/mL (≈ 0.0766 µM)
9 | CC[C@H]1OC(=O)CC(O)[C@H](C)[C@@H](O[C@@H]2O[C@H](C)C[C@H](N(C)C)[C@H]2O)[C@@H](CCN(CCO)CCO)C[C@@H](C)C(=O)/C=C/C(C)=C/[C@@H]1C (stereo partly drawn) | 41 mg/kg | 0.2 µg/mL (≈ 0.305 µM)
10 | CC[C@H]1OC(=O)CC(O)[C@H](C)[C@@H](O[C@@H]2O[C@H](C)C[C@H](N(C)C)[C@H]2O)[C@@H](CCN2CCCCCC2)C[C@@H](C)C(=O)/C=C/[C@]2(C)O[C@H]2[C@@H]1C (stereo partly drawn) | 150 mg/kg | 0.2 µg/mL (≈ 0.301 µM)
11 | CC[C@H]1OC(=O)CC(O)[C@H](C)[C@@H](O[C@@H]2O[C@H](C)C[C@H](N(C)C)[C@H]2O)[C@@H](CCN(C)C)C[C@@H](C)C(=O)/C=C/[C@]2(C)O[C@H]2[C@@H]1C (stereo partly drawn) | > 150 mg/kg | 0.39 µg/mL (≈ 0.638 µM)
12 | CC[C@H]1OC(=O)CC(O)[C@H](C)[C@@H](O[C@@H]2O[C@H](C)C[C@H](N(C)C)[C@H]2O)[C@@H](CCN(CCCN(C)C)C(=O)[C@H](C)N)C[C@@H](C)C(=O)/C=C/C(C)=C/[C@@H]1C (stereo partly drawn) | 3 mg/kg | 0.39 µg/mL (≈ 0.539 µM)
13 | CC[C@H]1OC(=O)CC(O)[C@H](C)[C@@H](O[C@@H]2O[C@H](C)C[C@H](N(C)C)[C@H]2O)[C@@H](CCN(C)CCCNC)C[C@@H](C)C(=O)/C=C/C(C)=C/[C@@H]1C (stereo partly drawn) | 4 mg/kg | 0.78 µg/mL (≈ 1.2 µM)
14 | CC[C@H]1OC(=O)CC(O)[C@H](C)[C@@H](O[C@@H]2O[C@H](C)C[C@H](N(C)C)[C@H]2O)[C@@H](CCN2CCCC2)C[C@@H](C)C(=O)/C=C/[C@]2(C)O[C@H]2[C@@H]1C (stereo partly drawn) | > 150 mg/kg | 0.78 µg/mL (≈ 1.22 µM)
15 | CC[C@H]1OC(=O)CC(O)[C@H](C)[C@@H](O[C@@H]2O[C@H](C)C[C@H](N(C)C)[C@H]2O)[C@@H](CCN2CC(O)C2)C[C@@H](C)C(=O)/C=C/C(C)=C/[C@@H]1C (stereo partly drawn) | 19 mg/kg | 0.2 µg/mL (≈ 0.321 µM)
16 | CC[C@H]1OC(=O)CC(O)[C@H](C)[C@@H](O[C@@H]2O[C@H](C)C[C@H](N(C)C)[C@H]2O)[C@@H](CCN(CCCN(C)C)C(C)=O)C[C@@H](C)C(=O)/C=C/C(C)=C/[C@@H]1C (stereo partly drawn) | > 25 mg/kg | 0.39 µg/mL (≈ 0.562 µM)
17 | CC[C@H]1OC(=O)CC(O)[C@H](C)[C@@H](O[C@@H]2O[C@H](C)C[C@H](N(C)C)[C@H]2O)[C@@H](CCN(C)CCCN(C)C(=O)[C@H](C)N)C[C@@H](C)C(=O)/C=C/C(C)=C/[C@@H]1C (stereo partly drawn) | 5 mg/kg | 0.39 µg/mL (≈ 0.539 µM)
18 | CO[C@@H]1[C@@H](O[C@@H]2O[C@H](C)[C@@H](O[C@H]3C[C@@](C)(O)[C@@H](OC(=O)CC(C)C)[C@@H](C)O3)[C@@H](N(C)C)[C@H]2O)[C@@H](CC=O)C[C@@H](C)C(=O)/C=C/C=C/C[C@@H](C)OC(=O)C[C@H]1OC(C)=O | > 150 mg/kg | 6.25 µg/mL (≈ 7.57 µM)
19 | CC[C@H]1OC(=O)CC(O)[C@H](C)[C@@H](O[C@@H]2O[C@H](C)C[C@H](N(C)C)[C@H]2O)[C@@H](CCN(C)CC)C[C@@H](C)C(=O)/C=C/C(C)=C/[C@@H]1C (stereo partly drawn) | 150 mg/kg | 0.2 µg/mL (≈ 0.328 µM)
20 | CC[C@H]1OC(=O)CC(O)[C@H](C)[C@@H](O[C@@H]2O[C@H](C)C[C@H](N(C)C)[C@H]2O)[C@@H](CCN(C)CCNC)C[C@@H](C)C(=O)/C=C/C(C)=C/[C@@H]1C (stereo partly drawn) | > 20 mg/kg | 0.2 µg/mL (≈ 0.314 µM)
21 | CC[C@H]1OC(=O)CC(O)[C@H](C)[C@@H](O[C@@H]2O[C@H](C)C[C@H](N(C)C)[C@H]2O)[C@@H](CCN(C)CCCN(C)C)C[C@@H](C)C(=O)/C=C/C(C)=C/[C@@H]1C (stereo partly drawn) | 26 mg/kg | 0.1 µg/mL (≈ 0.15 µM)
22 | CC[C@H]1OC(=O)CC(O)[C@H](C)[C@@H](O[C@@H]2O[C@H](C)C[C@H](N(C)C)[C@H]2O)[C@@H](CCN2CCN(C)CC2)C[C@@H](C)C(=O)/C=C/C(C)=C/[C@@H]1C (stereo partly drawn) | > 150 mg/kg | 0.39 µg/mL (≈ 0.6 µM)
23 | CC[C@H]1OC(=O)CC(O)[C@H](C)[C@@H](O[C@@H]2O[C@H](C)C[C@H](N(C)C)[C@H]2O)[C@@H](CCN(C)CCN(C)C(=O)[C@H](C)N)C[C@@H](C)C(=O)/C=C/C(C)=C/[C@@H]1C (stereo partly drawn) | 12 mg/kg | 0.05 µg/mL (≈ 0.0705 µM)
24 | CC[C@H]1OC(=O)CC(O)[C@H](C)[C@@H](O[C@@H]2O[C@H](C)C[C@H](N(C)C)[C@H]2O)[C@@H](CCN(C)C)C[C@@H](C)C(=O)/C=C/C(C)=C/[C@@H]1C (stereo partly drawn) | 150 mg/kg | 0.39 µg/mL (≈ 0.656 µM)
25 | CC[C@H]1OC(=O)CC(O)[C@H](C)[C@@H](O[C@@H]2O[C@H](C)C[C@H](N(C)C)[C@H]2O)[C@@H](CCN(CC)CC)C[C@@H](C)C(=O)/C=C/[C@]2(C)O[C@H]2[C@@H]1C (stereo partly drawn) | 123 mg/kg | 0.78 µg/mL (≈ 1.22 µM)
26 | CC[C@H]1OC(=O)CC(O)[C@H](C)[C@@H](O[C@@H]2O[C@H](C)C[C@H](N(C)C)[C@H]2O)[C@@H](CCNCCN(C)C)C[C@@H](C)C(=O)/C=C/C(C)=C/[C@@H]1C (stereo partly drawn) | 100 mg/kg | 0.2 µg/mL (≈ 0.314 µM)
27 | CC[C@H]1OC(=O)CC(O)[C@H](C)[C@@H](O[C@@H]2O[C@H](C)C[C@H](N(C)C)[C@H]2O)[C@@H](CCNC(C)(C)C)C[C@@H](C)C(=O)/C=C/C(C)=C/[C@@H]1C (stereo partly drawn) | 150 mg/kg | 0.39 µg/mL (≈ 0.626 µM)
28 | CC[C@H]1OC(=O)CC(O)[C@H](C)[C@@H](O[C@@H]2O[C@H](C)C[C@H](N(C)C)[C@H]2O)[C@@H](CCN2CCCC2)C[C@@H](C)C(=O)/C=C/C(C)=C/[C@@H]1C (stereo partly drawn) | 128 mg/kg | 0.39 µg/mL (≈ 0.628 µM)
29 | CC[C@H]1OC(=O)CC(O)[C@H](C)[C@@H](O[C@@H]2O[C@H](C)C[C@H](N(C)C)[C@H]2O)[C@@H](CCN(CCCN(C)C)C(=O)CNC)C[C@@H](C)C(=O)/C=C/C(C)=C/[C@@H]1C (stereo partly drawn) | 6 mg/kg | 1.56 µg/mL (≈ 2.16 µM)
